US20100279941A1, “CD36 MODULATION AND USES THEREOF” (priority 2009, published 2010)

Legend:
Assay type in all cases: in vivo
[1] = tested on: CD36^+/+ and CD36^−/− mice; assay: Myeloperoxidase assay of myocardial leukocyte accumulation; settings: 48 hours reperfusion; CD36-dependent (CD36^+/+ mice); 10-week pretreatment; p<0.05
Method: (§1) Experimental model of IHD: Transient left coronary artery ligation in vivo. Mice were subjected to a transient LCAL surgery as described before, with minor modifications [Tarnayski et al., 2004]. Mice were injected i.p. with buprenorphine (0.05 mg/kg) and placed in an induction chamber with inhalation anesthesia comprised of 3% isoflurane mixed with 100% oxygen. Mice were intubated with a blunt ended 20-gauge catheter into the trachea via the mouth and mechanically ventilated at a tidal volume of 7 ml/kg at 130 respirations/min with a MiniVent™ mouse ventilator (model 845, Harvard Apparatus, Saint-Laurent, QC, Canada). Anesthesia was maintained with 1.5-2% isoflurane and the animals were kept warm using electrical heating pads during the surgical procedure. The chest was opened by a horizontal incision through the skin and muscle layers at the third intercostal space exposing the left side of the heart. […] Visual blanching distal to the coronary occlusion confirmed myocardial ischaemia. Lidocaine (6 mg/kg) was administered i.p. just following occlusion and prior to reperfusion. After 30 minutes, the PE10 tubing was removed allowing reperfusion. The lungs were reinflated and the chest wound closed layer by layer before extubation. […]
Myeloperoxidase assay. […] The numbers of PMN per left ventricle were calculated from the standard curves.

[2] = tested on: C57BL/6 mice; assay: Cardiac troponin I (cTnI) in plasma, ELISA; settings: 48 hours post-ischemia; 2 weeks 289 nmol/kg; compared to vehicle
Method: C57BU6 mice were bred in house. Male mice, aged 23 (±1) weeks, were used for experiments. They were fed standard chow (#5075, Charles Rivers, Saint-Constant, Québec, Canada) and water ad libitum, and housed singly during treatment periods (2 weeks). Daily pharmacological treatments with 300 μg/kg (289 nmol/kg) of EP 80317 or 289 nmol/kg of CP-3(IV), 289 nmol/kg of CP-AP-4 or vehicle (0.9% NaCl) were done by subcutaneous (s.c.) injections.
Experimental model of IHD: Transient left coronary artery ligation in vivo. Mice were subjected to a transient LCAL surgery as described before, with minor modifications [Tarnayski et al., 2004]. Mice were injected i.p. with buprenorphine (0.05 mg/kg) and placed in an induction chamber with inhalation anesthesia comprised of 3% isoflurane mixed with 100% oxygen. Mice were intubated with a blunt ended 20-gauge catheter into the trachea via the mouth and mechanically ventilated at a tidal volume of 7 ml/kg at 130 respirations/min with a MiniVent™ mouse ventilator (model 845, Harvard Apparatus, Saint-Laurent, QC, Canada). Anesthesia was maintained with 1.5-2% isoflurane and the animals were kept warm using electrical heating pads during the surgical procedure. The chest was opened by a horizontal incision through the skin and muscle layers at the third intercostal space exposing the left side of the heart. […] Visual blanching distal to the coronary occlusion confirmed myocardial ischaemia. Lidocaine (6 mg/kg) was administered i.p. just following occlusion and prior to reperfusion. After 30 minutes, the PE10 tubing was removed allowing reperfusion. The lungs were reinflated and the chest wound closed layer by layer before extubation. […] Hearts were immediately frozen at −80° C. unless otherwise stated.
Cardiac troponin I (cTnI) concentrations in plasma. cTnI plasma levels were assayed using the High Sensitivity Mouse Cardiac Troponin-I ELISA Kit (Life Diagnostics, Inc., West Chester, Pa., Cat. No. 2010-1-HSP), according to the manufacturer's instructions.

[3] = tested on: circulating blood leukocytes; assay: Opsonized zymosan-stimulated luminol-enhanced whole blood chemiluminescence; settings: 48 hours reperfusion; CD36^+/+ mice; 10-week pretreatment; p<0.05
Method: as §1, with “reperfusion.” for “reperfusion. The lungs were reinflated and the chest wound closed layer by layer before extubation.”
Whole blood chemiluminescence. […] The chemiluminescence signals were recorded using a computer-assisted luminometer (model 500; Chronolog Corp, Havertown, Pa., USA). Chemiluminescence intensities were measured as the peak amplitude in arbitrary units.

HAIC-2MeDTrp-DLys-Trp-DPhe-Lys-NH2 [EP 80317]
reduction in myocardial leukocyte accumulation [1]: 53%
reduction of cardiac troponin I (cTnI) levels in plasma [2]: 60%
reduction of circulating blood leukocyte priming and/or activation [3]: 53%
